# Experimental data taken from patent US8188080B2 (Sanford-Burnham Medical Research Institute, priority 2007, dated 2012).
# pIC50: −log10 of the molar value. Read-outs that look alike come from different tables or passages of the source.
# How the values were obtained:
# Type in all cases: biochemical
# [1] = target: T1, HePTP (Homo sapiens, UniProt P35236); test: PTP-catalyzed hydrolysis of DiFMUP, IC50 determination (HePTP)
# T1 sequence (P35236 1-360): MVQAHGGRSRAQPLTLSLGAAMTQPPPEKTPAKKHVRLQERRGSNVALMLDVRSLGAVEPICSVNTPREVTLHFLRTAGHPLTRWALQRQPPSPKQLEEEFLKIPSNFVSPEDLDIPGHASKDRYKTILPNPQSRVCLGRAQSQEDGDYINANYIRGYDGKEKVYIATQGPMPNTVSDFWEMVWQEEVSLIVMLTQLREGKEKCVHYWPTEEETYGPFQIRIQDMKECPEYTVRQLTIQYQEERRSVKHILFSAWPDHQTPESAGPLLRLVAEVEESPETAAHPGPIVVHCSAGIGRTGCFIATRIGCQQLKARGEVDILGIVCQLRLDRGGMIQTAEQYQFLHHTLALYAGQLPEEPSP
# Procedure: (§1) The PTP-catalyzed hydrolysis of 6,8-difluoro-4-methylumbelliferyl phosphate (DiFMUP) in the presence of the test compound is assayed at 30° C. in a 60 μL 96 well format reaction system in 0.15 M Bis-Tris, pH 6.0 assay buffer having an ionic strength of 150 mM (adjusted with NaCl) and containing 1 mM dithiotreitol and 5% DMSO. At various concentrations of the compound, the initial rate at fixed DiFMUP concentration (equal to the corresponding Km value for each PTP) was determined using a FLx800 micro plate reader (Bio-Tek Instruments, Inc.), an excitation wave length of 360 nm and measuring the emission of the fluorescent reaction product 6,8-difluoro-7-hydroxy-4-methylcoumarin (DiFMU) at 460 nm. The nonenzymatic hydrolysis of the substrate was corrected by measuring the control without addition of enzyme. The IC50 value was determined by plotting the relative activity versus inhibitor concentrations and fitting to Equation 1 using the software GraphPad Prism™ (GraphPad Software, Inc.).
# (§2) [formula] In this case, Vi, is the reaction velocity when the inhibitor concentration is [I], V0 is the reaction velocity with no inhibitor and IC50=Ki+Ki[S]/Km.
# [2] = target: T2, MKP-1 (Homo sapiens, UniProt P28562); test: PTP-catalyzed hydrolysis of DiFMUP, IC50 determination (MKP-1)
# T2 sequence (P28562 1-367): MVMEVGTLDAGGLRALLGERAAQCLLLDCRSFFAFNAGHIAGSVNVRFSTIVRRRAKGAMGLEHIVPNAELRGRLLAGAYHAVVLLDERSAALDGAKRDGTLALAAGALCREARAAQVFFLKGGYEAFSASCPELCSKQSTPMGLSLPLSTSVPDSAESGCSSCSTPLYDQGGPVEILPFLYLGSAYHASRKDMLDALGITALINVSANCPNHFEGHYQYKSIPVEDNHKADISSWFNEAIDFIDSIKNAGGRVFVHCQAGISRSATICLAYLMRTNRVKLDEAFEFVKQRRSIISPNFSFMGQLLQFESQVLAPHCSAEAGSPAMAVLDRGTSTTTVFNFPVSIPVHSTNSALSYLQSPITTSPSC
# Procedure: The PTP-catalyzed hydrolysis of 6,8-difluoro-4-methylumbelliferyl phosphate (DiFMUP) in the presence of the test compound is assayed at 30° C. in a 60 μL 96 well format reaction system in 0.15 M Bis-Tris, pH 6.0 assay buffer having an ionic strength of 150 mM (adjusted with NaCl) and containing 1 mM dithiotreitol and 5% DMSO. […] The nonenzymatic hydrolysis of the substrate was corrected by measuring the control without addition of enzyme. The IC50 value was determined by plotting the relative activity versus inhibitor concentrations and fitting to Equation 1 using the software GraphPad Prism™ (GraphPad Software, Inc.).
# as §2
# [3] = target: VHR (Homo sapiens, UniProt P51452); test: PTP-catalyzed hydrolysis of DiFMUP, IC50 determination (VHR); details: DiFMUP at Km, pH 6.0, 30° C.
# Procedure: as §1, §2
# [4] = target: T3, Cdc25A (Homo sapiens, UniProt P30304); test: PTP-catalyzed hydrolysis of DiFMUP, IC50 determination (Cdc25A)
# T3 sequence (P30304 1-524): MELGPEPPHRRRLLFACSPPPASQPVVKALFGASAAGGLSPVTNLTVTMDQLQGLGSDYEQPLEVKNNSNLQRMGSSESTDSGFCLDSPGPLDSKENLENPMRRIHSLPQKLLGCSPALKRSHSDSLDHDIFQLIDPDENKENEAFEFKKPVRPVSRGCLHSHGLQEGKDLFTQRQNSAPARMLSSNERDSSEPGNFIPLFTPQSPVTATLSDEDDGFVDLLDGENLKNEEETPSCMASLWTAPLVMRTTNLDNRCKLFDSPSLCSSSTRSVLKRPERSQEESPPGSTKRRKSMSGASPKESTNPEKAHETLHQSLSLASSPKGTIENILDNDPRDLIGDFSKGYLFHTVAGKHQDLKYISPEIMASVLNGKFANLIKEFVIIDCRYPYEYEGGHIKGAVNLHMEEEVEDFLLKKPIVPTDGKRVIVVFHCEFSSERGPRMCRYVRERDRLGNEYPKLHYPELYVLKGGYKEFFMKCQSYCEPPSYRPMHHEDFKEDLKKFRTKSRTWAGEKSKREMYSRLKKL
# Procedure: as §1, §2
# [5] = target: T4, PTP1B (Homo sapiens, UniProt P18031); test: PTP-catalyzed hydrolysis of DiFMUP, IC50 determination (PTP1B)
# T4 sequence (P18031 1-435): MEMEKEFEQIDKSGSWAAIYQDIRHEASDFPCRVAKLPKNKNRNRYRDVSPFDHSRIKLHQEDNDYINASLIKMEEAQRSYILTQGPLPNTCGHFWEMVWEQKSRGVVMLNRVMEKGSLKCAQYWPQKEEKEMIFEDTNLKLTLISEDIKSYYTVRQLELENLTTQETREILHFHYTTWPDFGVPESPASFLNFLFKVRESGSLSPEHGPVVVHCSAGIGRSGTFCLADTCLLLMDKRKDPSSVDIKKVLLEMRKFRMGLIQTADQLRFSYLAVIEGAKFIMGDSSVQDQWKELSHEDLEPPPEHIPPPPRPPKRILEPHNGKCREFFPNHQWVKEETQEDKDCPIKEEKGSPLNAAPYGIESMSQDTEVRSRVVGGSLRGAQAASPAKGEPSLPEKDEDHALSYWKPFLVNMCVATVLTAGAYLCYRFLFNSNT
# Procedure: as §1, §2
# [6] = Table II, DiFMUP at Km, pH 6.0, 30° C.
# Sequence of VHR (P51452 whole entry): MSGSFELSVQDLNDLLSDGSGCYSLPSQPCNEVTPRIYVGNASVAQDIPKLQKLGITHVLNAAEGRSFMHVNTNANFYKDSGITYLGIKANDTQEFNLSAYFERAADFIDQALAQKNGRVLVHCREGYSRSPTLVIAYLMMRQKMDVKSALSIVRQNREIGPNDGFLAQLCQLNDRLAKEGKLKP
pIC50 [2],SMILES,pIC50 [1],"pIC50 [2, 6]","pIC50 ([3]; Table I, read-out: IC50)","pIC50 ([3]; Table II, read-out: IC50 VHR)","pIC50 [4, 6]",pIC50 [5],"pIC50 [1, 6]",pIC50 [4],"pIC50 [5, 6]"
,O=C1/C(=C/c2cn(-c3ccccc3)nc2-c2ccc(OCc3ccccc3)cc2)SC(=S)N1CCS(=O)(=O)O [Compound 9],5.82,6.11,7.11,7.11,5.46,5.76,,,
,"O=C1/C(=C/c2cn(-c3ccccc3)nc2-c2ccc(OCc3ccc(Cl)cc3)cc2)SC(=S)N1CCS(=O)(=O)O [Compound 10, (Z)-2-[5-({3-[4-(4-chlorobenzyloxy)phenyl]-1-phenyl-1H-pyrazol-4-yl}methylene)-4-oxo-2-thioxothiazolidin-3-yl]ethane sulfonic acid]",,6.34,7.74,7.74,,,6.21,5.61,6.34
6.32,O=C1/C(=C/c2cn(-c3ccccc3)nc2-c2ccc(S(=O)(=O)N3CCOCC3)cc2)SC(=S)N1CCS(=O)(=O)O [Compound 14],5.94,,5.61,7.15,,6.23,,5.47,
